Results from ChEMBL document CHEMBL1126399, “Synthesis and enzymatic properties of a deoxy analog of phosphatidylinositol” (Bioorg Med Chem Lett, 1992).

Assay: Inhibition of phosphatidylinositol (PI) hydrolysis
Format: functional

IC50: 2000 µM
SMILES: CCCCCCCCCCCCCCCC(=O)OC[C@H](COP(=O)(O)O[C@H]1C[C@@H](O)C(O)[C@@H](O)C1O)OC(=O)CCCCCCCCCCCCCCC (stereo partly specified)
